Results taken from patent publication US12391737B2, “Soluble NPY2 receptor agonists” (Boehringer Ingelheim International GmbH, priority 2020, dated 2025).

Legend:
[1] = biological target: T1, Human Neuropeptide Y2 Receptor (Homo sapiens, UniProt P49146); experiment: Radioligand binding competition assay (RLB); conditions: Table 3, 125I-PYY(1-36) competition; read-out: Ki
T1 construct: purchased CHEMICON HTS066M
T1 sequence (P49146 1-381): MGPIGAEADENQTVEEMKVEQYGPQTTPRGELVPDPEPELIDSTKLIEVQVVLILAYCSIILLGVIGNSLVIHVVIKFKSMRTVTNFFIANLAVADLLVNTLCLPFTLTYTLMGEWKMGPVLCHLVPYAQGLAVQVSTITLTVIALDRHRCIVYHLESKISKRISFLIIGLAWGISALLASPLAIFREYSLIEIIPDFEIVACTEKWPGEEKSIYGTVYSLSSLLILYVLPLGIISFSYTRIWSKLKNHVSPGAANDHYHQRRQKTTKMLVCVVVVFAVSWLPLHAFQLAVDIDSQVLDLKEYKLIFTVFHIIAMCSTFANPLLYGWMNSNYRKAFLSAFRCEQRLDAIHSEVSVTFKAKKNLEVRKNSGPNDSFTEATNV
Method in brief: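 Competition binding used membranes expressing the receptor (0.5 μg protein/well) in 50 mM HEPES, 5 mM MgCl2, 1 mM CaCl2, pH 7.4 with 0.2% ovalbumin, incubated 2 h at room temperature with shaking. Bound radioligand was collected by filtration onto PEI-soaked GF/C filters and counted; IC50 from nonlinear sigmoidal fits.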

[2] = Solubility determination; conditions: for Sol6: pH 6; for Sol7: pH 7
Method in brief: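 Shake-flask style: 10 mg/ml peptide (TFA salt), 0.1 M sodium diphosphate pH 6.4/7.0, 600 rpm, 2 h, RT; filter; dilute 1 mg/ml in 50% MeCN; RP-UPLC, 0–100% B over 2 min, 50 °C. Solubility = sample/control area ratio. Final pH recorded.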

Row | Structure (SMILES) | Ki [1] | Sol6 [2] | Sol7 [2]
1 | CC[C@H](C)[C@H](NC(=O)[C@H](CCC(=O)O)NC(=O)[C@H](CCC(=O)O)NC(=O)[C@@H]1CCCN1C(=O)[C@H](CCC(N)=O)NC(=O)[C@H](C)NC(=O)[C@H](CC(=O)O)NC(=O)[C@H](CCC(=O)O)NC(=O)[C@H](CCC(=O)O)NC(=O)[C@@H]1CCCN1C(=O)[C@H](CCCCNC(=O)CCCCCNC(=O)CC[C@H](NC(=O)CCCCCCCCCCCCCCCCC(=O)O)C(=O)O)NC(=O)[C@H](CCC(=O)O)NC(=O)[C@@H]1CCCN1C(=O)[C@H](C)NC(=O)CC(C)C)C(=O)N[C@@H](CCC(N)=O)C(=O)N[C@@H](CCCNC(=N)N)C(=O)N[C@@H](Cc1ccc(O)cc1)C(=O)N[C@@H](Cc1ccc(O)cc1)C(=O)N[C@H](C(=O)N[C@@H](CO)C(=O)N[C@@H](CC(C)C)C(=O)N[C@@H](CCCNC(=N)N)C(=O)N[C@@H](Cc1c[nH]cn1)C(=O)N[C@@H](Cc1ccc(O)cc1)C(=O)N[C@@H](Cc1ccc(O)cc1)C(=O)N[C@@H](CC(N)=O)C(=O)N[C@@H](Cc1c[nH]c2ccccc12)C(=O)N[C@@H](CC(C)C)C(=O)N[C@H](C(=O)N[C@@H](CCCNC(=N)N)C(=O)N[C@@H](CCC(N)=O)C(=O)N[C@@H](CCCNC(=N)N)C(=O)N[C@@H](Cc1ccc(O)cc1)C(N)=O)[C@@H](C)O)C(C)C [Compound 81, N{alpha-4}-(3-methylbutanoyl)-N{epsilon-7}-(6-[(4S)-4-carboxy-4-(17-carboxyheptadecanamido)butanamido]hexanoyl)-[4A,7K,9E,13Q,17I,18Q,22V,28Y,30W,31L]-hPYY(4-36)] | 2.65 nM | 8.9 mg/mL | 8.9 mg/mL
2 | CC[C@H](C)[C@H](NC(=O)[C@H](CCC(=O)O)NC(=O)[C@H](CCC(=O)O)NC(=O)[C@@H]1CCCN1C(=O)[C@H](CO)NC(=O)[C@H](C)NC(=O)[C@H](CC(=O)O)NC(=O)[C@H](CCC(=O)O)NC(=O)[C@@H]1CCCN1C(=O)[C@@H]1CCCN1C(=O)[C@H](CCCCNC(=O)CCCCCNC(=O)CC[C@H](NC(=O)CCCCCCCCCCCCCCCCC(=O)O)C(=O)O)NC(=O)[C@H](C)NC(=O)[C@@H]1CCCN1C(=O)[C@H](C)NC(=O)CC(C)C)C(=O)N[C@@H](CCC(N)=O)C(=O)N[C@@H](CCCNC(=N)N)C(=O)N[C@@H](Cc1ccc(O)cc1)C(=O)N[C@@H](Cc1ccc(O)cc1)C(=O)N[C@H](C(=O)N[C@@H](CO)C(=O)N[C@@H](CC(C)C)C(=O)N[C@@H](CCCNC(=N)N)C(=O)N[C@@H](Cc1c[nH]cn1)C(=O)N[C@@H](Cc1ccc(O)cc1)C(=O)N[C@@H](Cc1ccc(O)cc1)C(=O)N[C@@H](CC(N)=O)C(=O)N[C@@H](Cc1c[nH]c2ccccc12)C(=O)N[C@@H](CC(C)C)C(=O)N[C@H](C(=O)N[C@@H](CCCNC(=N)N)C(=O)N[C@@H](CCC(N)=O)C(=O)N[C@@H](CCCNC(=N)N)C(=O)N[C@@H](Cc1ccc(O)cc1)C(N)=O)[C@@H](C)O)C(C)C [Compound 82, N{alpha-4}-(3-methylbutanoyl)-N{epsilon-7}-(6-[(4S)-4-carboxy-4-(17-carboxyheptadecanamido)butanamido]hexanoyl)-[4A,6A,7K,9P,17I,18Q,22V,28Y,30W,31L]-hPYY(4-36)] | 0.58 nM | 0.0 mg/mL | 9.0 mg/mL
3 | CC(C)CC(=O)N[C@@H](C)C(=O)N1CCC[C@H]1C(=O)N[C@@H](CCC(=O)O)C(=O)N[C@@H](CCCCNC(=O)CCCCCNC(=O)CC[C@H](NC(=O)CCCCCCCCCCCCCCCCC(=O)O)C(=O)O)C(=O)N1CCC[C@H]1C(=O)N[C@@H](CCC(=O)O)C(=O)N[C@@H](CCC(=O)O)C(=O)N[C@@H](CC(=O)O)C(=O)N[C@@H](C)C(=O)N[C@H](C(=O)N[C@@H](CO)C(=O)N[C@@H](CCC(=O)O)C(=O)N[C@@H](CCC(=O)O)C(=O)N[C@@H](CC(C)C)C(=O)N[C@@H](CCC(N)=O)C(=O)N[C@@H](CCCNC(=N)N)C(=O)N[C@@H](Cc1ccc(O)cc1)C(=O)N[C@@H](Cc1ccc(O)cc1)C(=O)N[C@H](C(=O)N[C@@H](CO)C(=O)N[C@@H](CC(C)C)C(=O)N[C@@H](CCCNC(=N)N)C(=O)N[C@@H](Cc1c[nH]cn1)C(=O)N[C@@H](Cc1ccc(O)cc1)C(=O)N[C@@H](Cc1ccc(O)cc1)C(=O)N[C@@H](CC(N)=O)C(=O)N[C@@H](Cc1c[nH]c2ccccc12)C(=O)N[C@@H](CC(C)C)C(=O)N[C@H](C(=O)N[C@@H](CCCNC(=N)N)C(=O)N[C@@H](CCC(N)=O)C(=O)N[C@@H](CCCNC(=N)N)C(=O)N[C@@H](Cc1ccc(O)cc1)C(N)=O)[C@@H](C)O)C(C)C)[C@@H](C)O [Compound 83, N{alpha-4}-(3-methylbutanoyl)-N{epsilon-7}-(6-[(4S)-4-carboxy-4-(17-carboxyheptadecanamido)butanamido]hexanoyl)-[4A,7K,9E,13T,14S,18Q,22V,28Y,30W,31L]-hPYY(4-36)] | 6.91 nM | 10.0 mg/mL | 10.0 mg/mL
4 | CC(C)CC(=O)N[C@@H](C)C(=O)N1CCC[C@H]1C(=O)N[C@@H](C)C(=O)N[C@@H](CCCCNC(=O)CCCCCNC(=O)CC[C@H](NC(=O)CCCCCCCCCCCCCCCCC(=O)O)C(=O)O)C(=O)N1CCC[C@H]1C(=O)N[C@@H](CCC(=O)O)C(=O)N[C@@H](CCC(=O)O)C(=O)N[C@@H](CC(=O)O)C(=O)N[C@@H](C)C(=O)N[C@@H](CO)C(=O)N1CCC[C@H]1C(=O)N[C@@H](CCC(=O)O)C(=O)N[C@@H](CCC(=O)O)C(=O)N[C@H](C(=O)N[C@@H](CCC(N)=O)C(=O)N[C@@H](CCCNC(=N)N)C(=O)N[C@@H](Cc1ccc(O)cc1)C(=O)N[C@@H](Cc1ccc(O)cc1)C(=O)N[C@H](C(=O)N[C@@H](CO)C(=O)N[C@@H](CC(C)C)C(=O)N[C@@H](CCCNC(=N)N)C(=O)N[C@@H](Cc1c[nH]cn1)C(=O)N[C@@H](Cc1ccc(O)cc1)C(=O)N[C@@H](Cc1ccc(O)cc1)C(=O)N[C@@H](CC(N)=O)C(=O)N[C@@H](Cc1c[nH]c2ccccc12)C(=O)N[C@@H](CC(C)C)C(=O)N[C@H](C(=O)N[C@@H](CCCNC(=N)N)C(=O)N[C@@H](CCC(N)=O)C(=O)N[C@@H](CCCNC(=N)N)C(=O)N[C@@H](Cc1ccc(O)cc1)C(N)=O)[C@@H](C)O)C(C)C)[C@@H](C)O [Compound 85, N{alpha-4}-(3-methylbutanoyl)-N{epsilon-7}-(6-[(4S)-4-carboxy-4-(17-carboxyheptadecanamido)butanamido]hexanoyl)-[4A,6A,7K,9E,17T,18Q,22V,28Y,30W,31L]-hPYY(4-36)] | 1.61 nM | 8.6 mg/mL | 9.1 mg/mL
5 | CC[C@H](C)[C@H](NC(=O)[C@H](CCC(=O)O)NC(=O)[C@H](CCC(=O)O)NC(=O)[C@@H]1CCCN1C(=O)[C@@H](NC(=O)[C@H](C)NC(=O)[C@H](CC(=O)O)NC(=O)[C@H](CCC(=O)O)NC(=O)[C@H](CCC(=O)O)NC(=O)[C@@H]1CCCN1C(=O)[C@H](CCCCNC(=O)CCCCCNC(=O)CC[C@H](NC(=O)CCCCCCCCCCCCCCCCC(=O)O)C(=O)O)NC(=O)[C@H](CCC(=O)O)NC(=O)[C@@H]1CCCN1C(=O)[C@H](C)NC(=O)CC(C)C)[C@@H](C)O)C(=O)N[C@@H](CCC(N)=O)C(=O)N[C@@H](CCCNC(=N)N)C(=O)N[C@@H](Cc1ccc(O)cc1)C(=O)N[C@@H](Cc1ccc(O)cc1)C(=O)N[C@@H](C)C(=O)N[C@@H](CO)C(=O)N[C@@H](CC(C)C)C(=O)N[C@@H](CCCNC(=N)N)C(=O)N[C@@H](Cc1c[nH]cn1)C(=O)N[C@@H](Cc1ccc(O)cc1)C(=O)N[C@@H](Cc1ccc(O)cc1)C(=O)N[C@@H](CC(N)=O)C(=O)N[C@@H](Cc1c[nH]c2ccccc12)C(=O)N[C@@H](CC(C)C)C(=O)N[C@H](C(=O)N[C@@H](CCCNC(=N)N)C(=O)N[C@@H](CCC(N)=O)C(=O)N[C@@H](CCCNC(=N)N)C(=O)N[C@@H](Cc1ccc(O)cc1)C(N)=O)[C@@H](C)O [Compound 86, N{alpha-4}-(3-methylbutanoyl)-N{epsilon-7}-(6-[(4S)-4-carboxy-4-(17-carboxyheptadecanamido)butanamido]hexanoyl)-[4A,7K,9E,13T,17I,18Q,28Y,30W,31L]-hPYY(4-36)] | 4.33 nM | >10.0 mg/mL | >10.0 mg/mL
6 | CC(C)CC(=O)N[C@@H](C)C(=O)N1CCC[C@H]1C(=O)N[C@@H](CCC(=O)O)C(=O)N[C@@H](CCCCNC(=O)CCCCCNC(=O)CC[C@H](NC(=O)CCCCCCCCCCCCCCCCC(=O)O)C(=O)O)C(=O)N1CCC[C@H]1C(=O)N[C@@H](CCC(=O)O)C(=O)N[C@@H](CCC(=O)O)C(=O)N[C@@H](CC(=O)O)C(=O)N[C@@H](C)C(=O)N[C@H](C(=O)N1CCC[C@H]1C(=O)N[C@@H](CCC(=O)O)C(=O)N[C@@H](CCC(=O)O)C(=O)N[C@@H](CC(C)C)C(=O)N[C@@H](CCC(N)=O)C(=O)N[C@@H](CCCNC(=N)N)C(=O)N[C@@H](Cc1ccc(O)cc1)C(=O)N[C@@H](Cc1ccc(O)cc1)C(=O)N[C@H](C(=O)N1CCC[C@H]1C(=O)N[C@@H](CC(C)C)C(=O)N[C@@H](CCCNC(=N)N)C(=O)N[C@@H](Cc1c[nH]cn1)C(=O)N[C@@H](Cc1ccc(O)cc1)C(=O)N[C@@H](Cc1ccc(O)cc1)C(=O)N[C@@H](CC(N)=O)C(=O)N[C@@H](Cc1c[nH]c2ccccc12)C(=O)N[C@@H](CC(C)C)C(=O)N[C@H](C(=O)N[C@@H](CCCNC(=N)N)C(=O)N[C@@H](CCC(N)=O)C(=O)N[C@@H](CCCNC(=N)N)C(=O)N[C@@H](Cc1ccc(O)cc1)C(N)=O)[C@@H](C)O)C(C)C)[C@@H](C)O [Compound 87, N{alpha-4}-(3-methylbutanoyl)-N{epsilon-7}-(6-[(4S)-4-carboxy-4-(17-carboxyheptadecanamido)butanamido]hexanoyl)-[4A,7K,9E,13T,18Q,22V,23P,28Y,30W,31L]-hPYY(4-36)] | 22.4 nM | 9.7 mg/mL | 9.7 mg/mL
